Data as given in patent publication US20050143453A1, “Selective preventing and therapeutic agents for progressive lesion after organic damage” (priority 2000, published 2005).
Like-named read-outs stand apart in the source and are kept apart here.

Columns and labels:
[1] = tested on: induction of effector macrophage by contact of human PBMC with mitomycin-treated human PBMC (allo-MLC); experiment: SPFC production by allo-MLC stimulation (Test Example 2); assay type: cell-based
[2] = tested on: obstruction-released kidney of male SD rats; experiment: Obstruction release model after complete obstruction of unilateral ureter for 14 days (UUO/Release, Test Example 3); assay type: in vivo, rat; parameters: key to Suppressive Effect to Glomerular Lesion / Suppressive Effect to Lesion of Tubulointerstitial Tissue: ∘: available; Δ: somewhat available; x: not available
Method: Obstruction Release Model after Complete Obstruction of Unilateral Ureter for 14 Days
Experimental models were prepared by a method devised and established by Ishibashi (Michio Ishibashi, et al.: The Japanese Journal of Nephrology, 42: 248, 2000) using male SD rats of 8-9 weeks age and about 280 g. Thus, the rat was laparotomized under anesthetization with ether and ureter was ligated with 7-0 Nylon at the height of the margin of lower pole of left kidney to close the abdomen. On the 14th day after obstruction, the obstruction was released and urinary passage was reconstructed using a cuff. Thus, after 14 days, the part of ligated obstructed ureter was resected, a polyethylene tube of 25 gages (manufactured by Nippon Sherwood) was used as a cuff and inserted into and retained at the lumen from the cut end of the lower normal ureter, then the cuff was also retained in the expanded upper ureter and each of them was ligated and fixed by 7-0 Nylon to reconstruct the urinary passage. At the same time, the right kidney at the opposite side was excised. After the release of the obstruction, body weight was measured, blood was collected on the 2nd day, 5th day and 7th day from the release to measure serum creatinine, then the rat was sacrificed under anesthetization and the left obstruction-released kidney was excised. With regard to the excised kidney, there were carried out measurement of weight of the kidney and pathological test for the kidney.
An in vivo biological test was carried out for the γ-lactone derivatives according to the present invention using the above models. With regard to the test compound, bulk powder of the test compound was dissolved in an aseptic physiological saline together with gum arabic and the final concentration of gum arabic was 5%(vol/vol). The concentration of the test compound 30 mg/ml was suspended in 5% gum arabic-saline solution. The preparation was subcutaneously injected at the dose of 30 mg/kg every day throughout the experiment. With regard to the test compound, there were used (9-1), (4-2) and (7-3) as the compounds of group I suppressing the SPFC production by allo-MLC stimulation, i.e., the compounds which selectively suppress the induction of effector macrophage in the presence of allo-MLC while there was used (3-2) as the compound of group II suppressing the SPFC production by LPS stimulation, i.e., the compounds which selectively suppress the induction of effector macrophage in the presence of LPS.
In the Table, “functional classification” of the compound means the above group I, group II and group III. “Compound” means the compound bearing each of the above-mentioned compound numbers. The fact whether glomerular lesion was suppressed was judged by the ameriolation of the lesions such as thickness of wall of Bowman's capsule, hyperplasia of mesangial cells and glomerular sclerosis. The fact whether lesion of tubulointerstitial tissue was suppressed was judged by the ameriolation of the lesions such as thickness of basement membrane of tubules, cellular infiltration and fibrosis of interstitial tissue. In the table, “control” is the result when the same test as above was carried out using 5% gum arabic only which is a solvent.
In order to further confirm whether the preventive and therapeutic effect of the γ-lactone derivatives of the present invention to the target cell damage is selective, (7-3) of the group I and (6-1) of the group II were used as test compounds and they were subcutaneously injected at the dose of 30 mg/kg every day and compared with the control group. With regard to the control group, only 5% gum arabic which is a solvent was used and the same test as above was carried out.

[3] = tested on: kidney of chronic puromycin nephrosis rat; experiment: Puromycin chronic nephrosis model in rat (CPN, Test Example 4); assay type: in vivo
Method: Evaluation Using Puromycin Chronic Nephrosis Model in Rat
Male SD rat of 8 weeks age of about 250 g was used and […] of puromycin were intravenously administered once according to a method of Diamond, et al. (J. R. Diamond, I. Pesek, S. Ruggeri, M. J. Karnovsky: Essential fatty acid deficiency during acute puromycin nephrosis ameliorates late renal injury. Am. J. Physiol, 257: F798˜F807, 1989). There was induced a chronic puromycin nephrosis rat where albuminuria increased from about tenth to twelfth week. After eighth week from administration of puromycin, each of compound (9-1) and compound (6-1) was subcutaneously injected at the dose of 30 mg/kg/day everyday until the 22nd week.
As a functional evaluation of kidney, albumin in urine was measured every week using a kit for the measurement of albumin. On the 22nd week, the rat was killed and anatomized to observe functional and morphological changes of kidney.

[4] = Acute and chronic toxicity tests (Test Example 5); assay type: in vivo; settings: subcutaneously 90 mg/kg/day for ten days
Method: Acute and Chronic Toxicity Tests
Toxicity test of benzyl 2-chloro-5-oxotetrahydrofuran-2-carboxylate represented by the formula (6-1) manufactured in Example 8 and ethyl 2-ketoglutarate represented by the formula (9-1) was carried out.

[5] = tested on: lesion of tubulointerstitial tissue / glomerulus; experiment: Suppression of renal lesion in vivo by active metabolites (model not stated)
[6] = 30 mg/kg subcutaneously every day, Table 2
[7] = Experimental Model of Rat: UUO/Release
[8] = 30 mg/kg/day subcutaneously from 8th to 22nd week after puromycin

## CCOC(=O)C(=O)CCC(=O)O [(9-1), ethyl 2-ketoglutarate]
[1]; Table 5, read-out: Inhibiting Concentration for SPEC Production by allo-MLC Stimulation (μM: IC50)
  IC50: 0.01 µM
[1]; human PBMC with mitomycin-treated human PBMC, incubated 6 days, Table 1, read-out: SPFC Production Inhibiting Concentration by all-MLC Stimulation (μM: IC50)
  IC50: 0.01 µM
[1]; selectivity allo-MLC versus LPS stimulation, Table 1
  Functional Classification: Group I
[2]; 30 mg/kg subcutaneously every day
  selectivity of the suppressive effect on renal lesions: selective suppressive effect
[2]; [6]
  Rate of Cases where Glomerular Lesion was Suppressed: 0% (0/4)
  Rate of Cases where tubulointerstitial Lesion was Suppressed: 100% (4/4)
  Serum Creatinine level (mg/dl) on the 7th Day from Release of Obstruction: 2.0 ± 0.2 mg/dL
  Weight of Kidney (g) on the 7th Day from Release of Obstruction: 3.01 ± 0.56 g
[2]; [7]
  Suppressive Effect to Glomerular Lesion: x
  Suppressive Effect to Lesion of Tubulointerstitial Tissue: ∘
[3]; 30 mg/kg/day subcutaneously
  suppression of lesion of tubulointerstitial tissues: well suppressed
[3]; [8]
  Rate of Cases where Glomerular Lesion was Suppressed: 50% (3/6)
  Rate of Cases where Lesion of Tubulointerstitial Tissue was Suppressed: 83% (5/6)
[4]
  toxicity finding: an increase in weights of the liver and the spleen in a light degree
[5]
  suppression of lesion in tubulointerstitial tissue in vivo: shows an activity for suppressing
